In patent publication US20160271263A1 (Novo Nordisk A/S, priority 2010, published 2016):
Numbered stars: 1 amine (or outer) side, 2 acyl side, 3 side chain; on linkers, the order of the positions; unused ones are H or OH. Side chains are listed from the residue outwards. Peptide text beside a SMILES is read from it. * marks the point of attachment. C18 diacid = O=C(O)CCCCCCCCCCCCCCCCC(=O)*; γGlu = O=C(O)[C@H](CCC(=O)[*:2])N[*:1]; AEEA = NCCOCCOCC(=O)O

Biological target: glucagon receptor (Homo sapiens, UniProt P47871)
Sequence (P47871 26-477): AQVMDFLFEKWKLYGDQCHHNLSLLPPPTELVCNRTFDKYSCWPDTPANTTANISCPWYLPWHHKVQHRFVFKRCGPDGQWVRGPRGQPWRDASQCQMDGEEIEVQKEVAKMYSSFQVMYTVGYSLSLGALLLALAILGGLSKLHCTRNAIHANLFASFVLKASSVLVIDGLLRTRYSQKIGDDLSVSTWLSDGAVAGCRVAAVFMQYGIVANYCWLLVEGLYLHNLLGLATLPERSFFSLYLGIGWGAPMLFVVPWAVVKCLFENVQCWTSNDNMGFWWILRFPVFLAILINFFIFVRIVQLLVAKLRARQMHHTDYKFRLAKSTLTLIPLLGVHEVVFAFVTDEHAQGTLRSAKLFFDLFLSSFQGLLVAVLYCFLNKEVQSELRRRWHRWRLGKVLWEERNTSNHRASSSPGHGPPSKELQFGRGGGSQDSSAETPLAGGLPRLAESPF
Assay: cell-based

EC50	SMILES
0.0235 nM	CC(C)C[C@H](NC(=O)[C@H](CC(C)C)NC(=O)[C@H](Cc1c[nH]c2ccccc12)NC(=O)[C@H](CCCCNC(=O)COCCOCCNC(=O)COCCOCCNC(=O)CC[C@H](NC(=O)CCCCCCCCCCCCCCCCC(=O)O)C(=O)O)NC(=O)[C@@H](NC(=O)[C@H](Cc1ccccc1)NC(=O)[C@H](CC(=O)O)NC(=O)[C@H](CCC(N)=O)NC(=O)[C@H](C)NC(=O)[C@H](CCCNC(=N)N)NC(=O)[C@H](CCCNC(=N)N)NC(=O)[C@H](CCC(=O)O)NC(=O)[C@H](CC(=O)O)NC(=O)[C@H](CC(C)C)NC(=O)[C@H](Cc1ccc(O)cc1)NC(=O)[C@H](CCCCN)NC(=O)[C@H](CO)NC(=O)[C@H](Cc1ccc(O)cc1)NC(=O)[C@H](CC(=O)O)NC(=O)[C@H](CO)NC(=O)[C@@H](NC(=O)[C@H](Cc1ccccc1)NC(=O)[C@@H](NC(=O)CNC(=O)[C@H](CCC(N)=O)NC(=O)[C@H](CO)NC(=O)[C@@H](N)Cc1c[nH]cn1)[C@@H](C)O)[C@@H](C)O)C(C)C)C(=O)N[C@@H](C)C(=O)N[C@H](C(N)=O)[C@@H](C)O [Example 32, N^ε24-([2-[2-[2-[[2-[2-[2-[[(4S)-5-hydroxy-4-[(18-hydroxy-18-oxooctadecanoyl)amino]-5-oxopentanoyl]amino]ethoxy]ethoxy]acetyl]amino]ethoxy]ethoxy]acetyl])[Glu^16, Lys^24, Leu^27, Ala^28] Glucagon peptide amide] (H-HSQGTFTSDYSKYLDERRAQDFVK([AEEA-AEEA-γGlu-C18 diacid])WLLAT-NH2; N-terminus assumed)
0.046 nM	CC(C)C[C@H](NC(=O)[C@H](CC(C)C)NC(=O)[C@H](Cc1c[nH]c2ccccc12)NC(=O)[C@H](CCC(N)=O)NC(=O)[C@@H](NC(=O)[C@H](Cc1ccccc1)NC(=O)[C@H](CC(=O)O)NC(=O)[C@H](CCC(N)=O)NC(=O)[C@H](C)NC(=O)[C@H](CCCNC(=N)N)NC(=O)[C@H](CCCNC(=N)N)NC(=O)[C@H](CO)NC(=O)[C@H](CC(=O)O)NC(=O)[C@H](CC(C)C)NC(=O)[C@H](Cc1ccc(O)cc1)NC(=O)[C@H](CCCCN)NC(=O)[C@H](CO)NC(=O)[C@H](Cc1ccc(O)cc1)NC(=O)[C@H](CC(=O)O)NC(=O)[C@H](CO)NC(=O)[C@@H](NC(=O)[C@H](Cc1ccccc1)NC(=O)[C@@H](NC(=O)CNC(=O)[C@H](CCC(N)=O)NC(=O)[C@H](CO)NC(=O)[C@@H](N)Cc1c[nH]cn1)[C@@H](C)O)[C@@H](C)O)C(C)C)C(=O)N[C@@H](CC(N)=O)C(=O)N[C@@H](CCCCNC(=O)COCCOCCNC(=O)COCCOCCNC(=O)CC[C@H](NC(=O)CCCCCCCCCCCCCCCCC(=O)O)C(=O)O)C(=O)O [Example 10]
0.094 nM	CC(C)C[C@H](NC(=O)[C@H](Cc1ccc(O)cc1)NC(=O)[C@H](CCCCN)NC(=O)[C@H](CO)NC(=O)[C@H](Cc1ccc(O)cc1)NC(=O)[C@H](CC(=O)O)NC(=O)[C@H](CO)NC(=O)[C@@H](NC(=O)[C@H](Cc1ccccc1)NC(=O)[C@@H](NC(=O)CNC(=O)[C@H](CCC(N)=O)NC(=O)[C@H](CO)NC(=O)[C@@H](N)Cc1c[nH]cn1)[C@@H](C)O)[C@@H](C)O)C(=O)N[C@@H](CC(=O)O)C(=O)N[C@@H](CO)C(=O)N[C@@H](CCCCNC(=O)COCCOCCNC(=O)COCCOCCNC(=O)CC[C@H](NC(=O)CCCCCCCCCCCCCCCCC(=O)O)C(=O)O)C(=O)N[C@@H](CCCNC(=N)N)C(=O)N[C@@H](C)C(=O)N[C@@H](CCC(N)=O)C(=O)N[C@@H](CC(=O)O)C(=O)N[C@@H](Cc1ccccc1)C(=O)N[C@H](C(=O)N[C@@H](CCC(N)=O)C(=O)N[C@@H](Cc1c[nH]c2ccccc12)C(=O)N[C@@H](CC(C)C)C(=O)N[C@@H](CC(C)C)C(=O)N[C@@H](CC(N)=O)C(=O)N[C@H](C(=O)O)[C@@H](C)O)C(C)C [Example 19]

Further lines, the compound ahead of its results:

SMILES	EC50
CC(C)C[C@H](NC(=O)[C@H](Cc1ccc(O)cc1)NC(=O)[C@H](CCCCN)NC(=O)[C@H](CO)NC(=O)[C@H](Cc1ccc(O)cc1)NC(=O)[C@H](CC(=O)O)NC(=O)[C@H](CO)NC(=O)[C@@H](NC(=O)[C@H](Cc1ccccc1)NC(=O)[C@@H](NC(=O)CNC(=O)[C@H](CCC(N)=O)NC(=O)[C@H](CO)NC(=O)[C@@H](N)Cc1c[nH]cn1)[C@@H](C)O)[C@@H](C)O)C(=O)N[C@@H](CC(=O)O)C(=O)N[C@@H](CO)C(=O)N[C@@H](CCCNC(=N)N)C(=O)N[C@@H](CCCNC(=N)N)C(=O)N[C@@H](C)C(=O)N[C@@H](CCC(N)=O)C(=O)N[C@@H](CC(=O)O)C(=O)N[C@@H](Cc1ccccc1)C(=O)N[C@H](C(=O)N[C@@H](CCCCNC(=O)COCCOCCNC(=O)COCCOCCNC(=O)CC[C@H](NC(=O)CCCCCCCCCCCCCCCCC(=O)O)C(=O)O)C(=O)N[C@@H](Cc1c[nH]cn1)C(=O)N[C@@H](CC(C)C)C(=O)N[C@@H](CC(C)C)C(=O)N[C@@H](CC(N)=O)C(=O)N[C@H](C(=O)O)[C@@H](C)O)C(C)C [Example 50, N^ε24-([2-[2-[2-[[2-[2-[2-[[(4S)-5-hydroxy-4-[(18-hydroxy-18-oxooctadecanoyl)amino]-5-oxopentanoyl]amino]ethoxy]ethoxy]acetyl]amino]ethoxy]ethoxy]acetyl]) [Lys^24,His^25,Leu^27] Glucagon]	0.194 nM
CC(C)C[C@H](NC(=O)[C@H](Cc1ccc(O)cc1)NC(=O)[C@H](CCCCN)NC(=O)[C@H](CO)NC(=O)[C@H](Cc1ccc(O)cc1)NC(=O)[C@H](CCC(=O)O)NC(=O)[C@H](CO)NC(=O)[C@@H](NC(=O)[C@H](Cc1ccccc1)NC(=O)[C@@H](NC(=O)CNC(=O)[C@H](CCC(N)=O)NC(=O)[C@H](CO)NC(=O)[C@@H](N)Cc1c[nH]cn1)[C@@H](C)O)[C@@H](C)O)C(=O)N[C@@H](CC(=O)O)C(=O)N[C@@H](CO)C(=O)N[C@@H](CCCNC(=N)N)C(=O)N[C@@H](CCCNC(=N)N)C(=O)N[C@@H](C)C(=O)N[C@@H](CCC(N)=O)C(=O)N[C@@H](CC(=O)O)C(=O)N[C@@H](Cc1ccccc1)C(=O)N[C@H](C(=O)N[C@@H](CCCCNC(=O)CC[C@H](NC(=O)CC[C@H](NC(=O)COCCOCCNC(=O)CC[C@H](NC(=O)CCCCCCCCCCCCCCCCC(=O)O)C(=O)O)C(=O)O)C(=O)O)C(=O)N[C@@H](Cc1c[nH]c2ccccc12)C(=O)N[C@@H](CC(C)C)C(=O)N[C@@H](CC(C)C)C(=O)N[C@@H](CO)C(=O)N[C@H](C(=O)O)[C@@H](C)O)C(C)C [Example 92, N^ε24-[(4S)-4-carboxy-4-[[(4S)-4-carboxy-4-[[2-[2-[2-[[(4S)-4-carboxy-4-(17-carboxyheptadecanoylamino)butanoyl]amino]ethoxy]ethoxy]acetyl]amino]butanoyl]amino]butanoyl]-[Glu^9,Lys^24,Leu^27,Ser^28]-Glucagon]	2.2 nM
CC(C)C[C@H](NC(=O)[C@H](Cc1ccc(O)cc1)NC(=O)[C@H](CCCCNC(=O)CC[C@H](NC(=O)CC[C@H](NC(=O)COCCOCCNC(=O)COCCOCCNC(=O)CC[C@H](NC(=O)CCCCCCCCCCCCCCCCC(=O)O)C(=O)O)C(=O)O)C(=O)O)NC(=O)[C@H](CO)NC(=O)[C@H](Cc1ccc(O)cc1)NC(=O)[C@H](CC(=O)O)NC(=O)[C@H](CO)NC(=O)[C@@H](NC(=O)[C@H](Cc1ccccc1)NC(=O)[C@@H](NC(=O)CNC(=O)[C@H](CCC(N)=O)NC(=O)[C@H](CO)NC(=O)[C@@H](N)Cc1c[nH]cn1)[C@@H](C)O)[C@@H](C)O)C(=O)N[C@@H](CC(=O)O)C(=O)N[C@@H](CO)C(=O)N[C@@H](CCCNC(=N)N)C(=O)N[C@@H](CCCNC(=N)N)C(=O)N[C@@H](C)C(=O)N[C@@H](CCC(N)=O)C(=O)N[C@@H](CC(=O)O)C(=O)N[C@@H](Cc1ccccc1)C(=O)N[C@H](C(=O)N[C@@H](CCC(N)=O)C(=O)N[C@@H](Cc1c[nH]c2ccccc12)C(=O)N[C@@H](CC(C)C)C(=O)N[C@@H](CC(C)C)C(=O)N[C@@H](CC(N)=O)C(=O)N1CCC[C@H]1C(=O)O)C(C)C [Example 80, N^ε12-[(4S)-4-carboxy-4-[[(4S)-4-carboxy-4-[[2-[2-[2-[[2-[2-[2-[[(4S)-4-carboxy-4-(17-carboxyheptadecanoylamino)butanoyl]amino]ethoxy]ethoxy]acetyl]amino]ethoxy]ethoxy]acetyl]amino]butanoyl]amino]butanoyl]-[Leu^27,Pro^29]-Glucagon]	1.58 nM
CC(C)C[C@H](NC(=O)[C@H](Cc1ccc(O)cc1)NC(=O)[C@H](CCCCN)NC(=O)[C@H](CO)NC(=O)[C@H](Cc1ccc(O)cc1)NC(=O)[C@H](CC(=O)O)NC(=O)[C@H](CO)NC(=O)[C@@H](NC(=O)[C@H](Cc1ccccc1)NC(=O)[C@@H](NC(=O)CNC(=O)[C@H](CCC(N)=O)NC(=O)[C@H](CO)NC(=O)[C@@H](N)Cc1c[nH]cn1)[C@@H](C)O)[C@@H](C)O)C(=O)N[C@@H](CC(=O)O)C(=O)N[C@@H](CO)C(=O)N[C@@H](CCCNC(=N)N)C(=O)N[C@@H](CCCNC(=N)N)C(=O)N[C@@H](C)C(=O)N[C@@H](CCC(N)=O)C(=O)N[C@@H](CC(=O)O)C(=O)N[C@@H](Cc1ccccc1)C(=O)N[C@H](C(=O)N[C@@H](CCC(N)=O)C(=O)N[C@@H](CCCCNC(=O)CC[C@H](NC(=O)CC[C@H](NC(=O)COCCOCCNC(=O)COCCOCCNC(=O)CC[C@H](NC(=O)CCCCCCCCCCCCCCCCC(=O)O)C(=O)O)C(=O)O)C(=O)O)C(=O)N[C@@H](CC(C)C)C(=O)N[C@@H](CC(C)C)C(=O)N[C@@H](CC(N)=O)C(=O)N[C@H](C(=O)O)[C@@H](C)O)C(C)C [Example 76, N^ε25-[(4S)-4-carboxy-4-[[(4S)-4-carboxy-4-[[2-[2-[2-[[2-[2-[2-[[(4S)-4-carboxy-4-(17-carboxyheptadecanoylamino)butanoyl]amino]ethoxy]ethoxy]acetyl]amino]ethoxy]ethoxy]acetyl]amino]butanoyl]amino]butanoyl]-[Lys^25,Leu^27]-Glucagon]	0.988 nM
